Type in all cases: cell-based
For experiment [1], the system named is T. brucei rhodesiense, strain STIB900 trypomastigote forms. Description: In vitro growth inhibition assay of Trypanosoma brucei rhodesiense (Alamar Blue). The note with it: for IC50: 72 h, strain STIB900, trypomastigote forms, read-out: T.b.rhod. IC50; for SI (IC50 in L6 cells/IC50 T. b. rhodesiense): ratio IC50 L6 / IC50 T. b. rhodesiense STIB900. Here is the method: Trypanosoma brucei rhodesiense, STIB 900 strain, and the standard drug, melarsoprol, were used for the assay. Minimum Essential Medium (50 μL) supplemented with 25 mM HEPES, 1g/L additional glucose, 1% MEM non-essential amino acids (100×), 0.2 mM 2-mercaptoethanol, 1 mM Na-pyruvate, and 15% heat-inactivated horse serum was added to each well of a 96-well microtiter plate. Serial drug dilutions of 11 three-fold dilution steps covering a range from 100 to 0.002 μg/mL were prepared. Then, 4 × 10^3 bloodstream forms of T. b. rhodesiense (STIB 900) in 50 μL were added to each well and the plate was incubated at 37 °C under a 5% CO2 atmosphere for 72 h. 10 μL Alamar Blue (resazurin, 12.5 mg in 100 mL double-distilled water) was then added to each well and incubation continued for a further 2–4 h. Then, the plates were read with a Spectramax Gemini XS microplate fluorometer (Molecular Devices Cooperation, Sunnyvale, CA, USA) using an excitation wavelength of 536 nm and an emission wavelength of 588 nm. The IC50 values were calculated from the sigmoidal inhibition curves using the microplate reader software, Softmax Pro (Molecular Devices Cooperation, Sunnyvale, CA, USA). Melarsoprol was used as the control.

In experiment [2] the test system is L6 cells rat skeletal myoblasts. In words: Cytotoxicity against L6 cells (Alamar Blue). The note with it: L6 rat skeletal myoblasts, 72 h; read-out: Cyt. L6 IC50. Here is the method:
Assays were performed in 96-well microtiter plates, each well containing 100 μL of RPMI 1640 medium supplemented with 1% L-glutamine (200 mM) and 10% foetal bovine serum, and 4000 L6 cells (a […] cell line derived from rat skeletal myoblasts). Serial drug dilutions of 11 threefold dilution steps covering a range from 100 to 0.002 μg/mL were prepared. After 72 h of incubation, the plates were inspected under an inverted microscope to assure growth of the controls and sterile conditions. 10 μL of Alamar Blue solution was then added to each well and the plates incubated for another 2 h. Then, the plates were read with a Spectramax Gemini XS microplate fluorometer (Molecular Devices Cooperation, Sunnyvale, CA, USA) using an excitation wavelength of 536 nm and an emission wavelength of 588 nm. The IC50 values were calculated by linear regression from the sigmoidal dose inhibition curves using the microplate reader software, Softmax Pro (Molecular Devices Cooperation, Sunnyvale, CA, USA). Podophyllotoxin (Sigma P4405) was used as the control.
On the technique in general: The colour change of resazurin is a common sign of viable cells or microbes.

The test system of experiment [3] is HCT-116 colon cancer cells. In words: XTT viability assay, HCT-116. The note with it: Homo sapiens, 72 h, read-out: metabolic active cells in % of control; for viability at 5 µg/mL: HCT 116, 5 µg/mL; for viability at 50 µg/mL: HCT 116, 50 µg/mL. The protocol:
Human CCRF-CEM leukemia and MDA-MB-231 breast cancer cells lines were kept in RPMI1640 medium (Gibco®, ThermoFisher Scientific Inc., New York, NY, USA), supplemented with 2 mM L-glutamine (Gibco®), 10% heat-inactivated foetal bovine serum (FBS, Gibco®), 100 units/mL Penicillin (PAA), and 100 µg/mL Streptomycin (Gibco®) (1% Pen/Strep). HCT-116 and U251 cells were cultured in high-glucose Dulbecco’s Modified Eagle Medium (DMEM, Gibco®) containing 2 mM L-glutamine, 10% FBS, and 1% Pen/Strep. MRC-5 cells were grown in Minimum Essential Medium (MEM, Gibco®) supplemented with 2 mM L-glutamine, 10% FBS, and 1% Pen/Strep. All cells were kept in a humidified 5% CO2 atmosphere at 37 °C and passaged at 90% confluence.
A Cell Proliferation Kit II (XTT) was purchased from Sigma-Aldrich and performed as described previously and in accordance with the manufacturer’s protocol. In brief, adherent cell lines were seeded at a density of 50,000 cells/mL or 100,000 cells/mL (MRC-5) in 96 well plates (100 µL, flat bottom) and grown for 24 h before test compounds were added. Suspension cells (CCRF-CEM) were seeded at 100,000 cells/mL and test compounds were added immediately. After 72 h, XTT solution was added for another 90 min or 4 h (CCRF-CEM cells) and absorbance was measured at 490 nm with a reference wave length of 650 nm (Hidex Sense Microplate Reader 425-301, Hidex, Turku, Finland). Results are expressed as a percentage of the vehicle-treated (0.5% DMSO) control cells. Vinblastine served as the positive control (0.01 µg/mL).

This is an account of results in PMC6278284, “Synthesis of Jacaranone-Derived Nitrogenous Cyclohexadienones and Their Antiproliferative and Antiprotozoal Activities” (Molecules, 2018).

Where two headings read alike, the source gives them in different places. Where only a bound is given, the exact number is not on record here.

For orientation: IC50 means the concentration at which inhibition is half-maximal. Consider `O=C1C=CC(O)(CCN2CCOCC2)C=C1` [Compound 14c, N-[2-(1-Hydroxy-4-oxocyclohexa-2,5-dien-1-yl)ethyl]morpholine], for which, in experiment [1] (Trypanosoma brucei), the IC50 was 0.27 µM. Besides, the “SI (IC50 in L6 cells/IC50 T. b. rhodesiense)” value (“SI” below) in experiment [1] is reported as 12.9. For the same compound, in experiment [2], the IC50 was 3.46 µM. Further, in experiment [3], the viability at 5 µg/mL amounted to 87.7% and the viability at 50 µg/mL is 1.58%.

With `O=C1C=CC(O)(CCN2C(=O)C=CC2=O)C=C1` [Compound 13b, N-[2-(1-Hydroxy-4-oxocyclohexa-2,5-dien-1-yl)ethyl]maleimide], in experiment [1] (Trypanosoma brucei), the IC50 stood at 2.15 µM. In addition, the “SI” value in experiment [1] amounted to 12.5. The IC50 in experiment [2] is 26.8 µM. Further, in experiment [3], the viability at 5 µg/mL is 0.13% and the viability at 50 µg/mL is -0.32%.

In the case of `O=C1C=CC(O)(CCN2C(=O)c3cccnc3C2=O)C=C1` [Compound 13f, N-[2-(1-Hydroxy-4-oxocyclohexa-2,5-dien-1-yl)ethyl]pyridine-2,3-dicarboximide], in experiment [1], the “SI” value was 3.4. Besides, in experiment [2], the IC50 turned out to be 153 µM. In experiment [3], the viability at 5 µg/mL was 91% and the viability at 50 µg/mL came out at 92.8%.

As for `O=C1C=CC(O)(CCN2C(=O)C3=C(CCCC3)C2=O)C=C1` [Compound 13i, N-[2-(1-Hydroxy-4-oxocyclohexa-2,5-dien-1-yl)ethyl]-3,4,5,6-tetrahydrophthalimide], the IC50 in experiment [1] (Trypanosoma brucei) worked out at 0.8 µM. The IC50 in experiment [2] was 3.52 µM. In experiment [3], the viability at 5 µg/mL amounted to 1.04% and the viability at 50 µg/mL was 0.15%.

Turning to `O=C1C=CC(O)(CCN2Cc3ccccc3C2)C=C1` [Compound 14a, N-[2-(1-Hydroxy-4-oxocyclohexa-2,5-dien-1-yl)ethyl]isoindoline], the IC50 in experiment [1] (Trypanosoma brucei) was determined as 0.57 µM; in experiment [2], 2.81 µM. Besides, the “SI” value in experiment [1] came out at 4.9. Also, the viability at 5 µg/mL in experiment [3] was determined as 97.3%. Besides, in experiment [3], the viability at 50 µg/mL worked out at 62.1%.

Take `O=C1C=CC(O)(CCN2C(=O)C3CC=CCC3C2=O)C=C1` (stereo not shown) [Compound 13j, N-[2-(1-Hydroxy-4-oxocyclohexa-2,5-dien-1-yl)ethyl]-1,2,3,6-tetrahydrophthalimide]: the IC50 in experiment [1] (Trypanosoma brucei) turned out to be 0.97 µM. Also, the “SI” value in experiment [1] is 8.3. Besides, the IC50 in experiment [2] is 8.04 µM. In experiment [3], the viability at 5 µg/mL was 98.6% and the viability at 50 µg/mL was 63.3%.

Consider `O=C1C=CC(O)(CCN2C(=O)COCC2=O)C=C1` [Compound 13g, N-[2-(1-Hydroxy-4-oxocyclohexa-2,5-dien-1-yl)ethyl]morpholine-3,5-dione], for which the IC50 in experiment [1] (Trypanosoma brucei) is above 10 µM. Moreover, in experiment [1], the “SI” value came to 5.1 and the IC50 amounted to 15.3 µM. In addition, in experiment [2], the IC50 is 77.5 µM. In addition, in experiment [3], the viability at 5 µg/mL worked out at 96% and the viability at 50 µg/mL turned out to be 68.1%.
